In patent publication US20140037721A1, “Pharmaceutical Composition” (Alpharma pharmaceuticals LLC, priority 2007, published 2014):
Counter-ions that a name gives are not always drawn.

Experiments:
[1] = in comparison to a 15 mg dose of hydrocodone
[2] = system: opioid receptors; conditions: cited from earlier work
[3] = cited from earlier work

Row | Compound | Equianalgesic Calculated Dose [1] | also measured
1 | COc1ccc2c3c1O[C@H]1[C@@H](O)C=C[C@H]4[C@@H](C2)N(C)CC[C@@]341 [Codeine, codeine] | 90.0 mg | 
2 | COc1ccc2c3c1OC1C(=O)CC[C@H]4[C@@H](C2)N(C)CC[C@]314 (stereo partly drawn) [Hydrocodone, 4,5-epoxy-3-methoxy-17-methylmorphinan-6-one] | 15.0 mg | 
3 | CN1CC[C@]23CCCC[C@H]2[C@H]1Cc1ccc(O)cc13 [Levorphanol, levorphanol] | 1.8 mg | 
4 | CCC(=O)C(CC(C)N(C)C)(c1ccccc1)c1ccccc1 (stereo not drawn) [Methadone, methadone] | 9.0 mg | 
5 | COc1ccc2c3c1OC1C(=O)CC[C@@]4(O)[C@@H](C2)N(C)CC[C@]314 (stereo partly drawn) [Oxycodone, 4,5-epoxy-14-hydroxy-3-methoxy-17-methylmorphinan-6-one] | 13.5 mg | 
6 | C[C@H]1[C@H]2Cc3ccc(O)cc3[C@]1(C)CCN2CC1CC1 [cyclazocine] |  | duration of action after oral administration ([2]; in vivo, po): ~24 h
7 | O=C1CC[C@@]2(O)[C@H]3Cc4ccc(O)c5c4[C@@]2(CCN3CC2CC2)[C@H]1O5 [hydrochloride salt of naltrexone, naltrexone hydrochloride] |  | solubility in water [3]: about 100 mg/cc
8 | O=C1CC[C@@]2(O)[C@H]3Cc4ccc(O)c5c4[C@@]2(CCN3CC2CC2)[C@H]1O5 [naltrexone] |  | blockade of morphine effects ([2]; normal volunteers, three 100-mg doses, MS Contin): blocked
9 | meperidine | 135.0 mg | 
